From patent publication EP4129319A1, “PORE-FORMING ANTIMICROBIAL PEPTIDES” (priority 2021, dated 2023)
pEC50: −log10 of the molar value. Like-named read-outs stand apart in the source and are kept apart here. Ends that are not written are not given here.

Assays:
Calcein leakage assay = assay type: biochemical; conditions: for Extent of leakage (in percentage) at increasing peptide-to-lipid ratio (mol/mol) 1:10 / Extent of leakage (in percentage) at increasing peptide-to-lipid ratio (mol/mol) 1:20 / Extent of leakage (in percentage) at increasing peptide-to-lipid ratio (mol/mol) 1:50 / Extent of leakage (in percentage) at increasing peptide-to-lipid ratio (mol/mol) 1:100: calcein leakage, POPC:POPG (1:1 mol/mol) LUVs; for Extent of leakage (in percentage) at increasing peptide-to-lipid ratio (mol/mol) 1:10: peptide-to-lipid ratio 1:10 (mol/mol); for Extent of leakage (in percentage) at increasing peptide-to-lipid ratio (mol/mol) 1:20: peptide-to-lipid ratio 1:20 (mol/mol); for Extent of leakage (in percentage) at increasing peptide-to-lipid ratio (mol/mol) 1:50: peptide-to-lipid ratio 1:50 (mol/mol); for Extent of leakage (in percentage) at increasing peptide-to-lipid ratio (mol/mol) 1:100: peptide-to-lipid ratio 1:100 (mol/mol); for calcein / vesicle leakage, pore-forming ability (in words): POPC:POPG (1:1) LUVs
Experimental: (§1) Chemicals. […] (Prague, Czech Republic), and Caslo ApS (Kongens Lyngby, Denmark). […] The bacterial stock was stored at -80°C.
Calcein leakage assay. Pore-forming activity of the peptides was tested by their ability to leak the self-quenching fluorescent dye calcein entrapped within POPC:POPG (1:1 mol/mol) large unilamellar vesicles (LUVs). After mixing DiD to the lipid mixture (in the ratio 1:500 mol/mol), a thin lipid film was created by evaporating of the chloroform, traces of which were removed by desiccating overnight. The lipid film was then dissolved in calcein buffer, followed by vigorous vortexing. The lipid suspension was subsequently subjected to 10 freeze-thaw cycles. To obtain uniform LUVs, the sample was passed 50 times back and forth through an extruder stacked with 100 nm pore size polycarbonate membrane filter. Afterwards, the untrapped calcein was removed on a HiTrap Desalting Column (with Sephadex G-25 Superfine resin) by washing with PBS buffer. The concentration of the lipid suspension was then adjusted to 0.02 mM. The concentration of the peptide solution was 0.1 mM. The inventors monitored the peptide-induced release of calcein from LUVs by the increase in fluorescence intensity after adding increasing amounts of peptides to the LUVs under constant stirring at 25 °C. The investigated range of peptide/lipid molecular ratio was from 1:100 to 1:10. The excitation and emission wavelengths were set to 495 nm and 520 nm, respectively. Maximum fluorescence intensity was obtained by disrupting all the vesicles in the end by adding 10% Triton X-100. Experiments were performed in triplicates with independently prepared lipid vesicles.

[1] = system: Gram-negative Escherichia coli TOP10 strain; assay type: cell-based; conditions: for Antibacterial activity (MIC in µM) E. coli TOP10: broth microdilution assay
Experimental: as §1
(§2) Broth microdilution assay. Antimicrobial activity of the peptides was investigated against Gram-negative Escherichia coli TOP10 strain and Gram-positive Staphylococcus carnosus CCM 4838T using broth microdilution assay, based on which the inventors determined the bacterial minimum inhibition concentration (MIC). After cross streaking with bacteria, the petri dishes (with MHA) were incubated for 24 h at 37 °C. Overnight grown cultures were then sub-cultured for 4-6 h at 37 °C in test tubes containing MHB. The sub-cultured solutions were subsequently diluted to a standard concentration of 10^6 colony forming units (CFU) per mL. Cell counts were determined by measuring the optical density at 600 nm. In a flat-bottomed 96 well plate, the inventors prepared a dilution series for the peptides and for the reference antibiotic ampicillin from 50 to 0.1 µM concentration, which was then inoculated with bacteria and incubated for 24 h at 37 °C. Growth control wells were free from peptides or ampicillin to show the viability of the bacteria, and sterility control wells were free from bacterial inoculation to verify the sterility of the medium. The bacterial growth was visually evaluated based on the turbidity. MIC was determined as the lowest concentrated well where no visible bacterial growth was observed. To test the bacteriostatic or bacteriocidal activity of the peptides, 50 µl solution from the highest concentrated well (i.e., 50 µM) was transferred to a test tube containing 4 mL sterile MHB and incubated for 24 h at 37 °C under constant stirring. Streaking of the same solution was done on MHA containing petri dishes and incubated for 24 h at 37 °C to confirm the morphology of the colonies grown. Experiments were performed in triplicates.

[2] = system: Gram-positive Staphylococcus carnosus CCM 4838T; assay type: cell-based; conditions: for MIC against S. carnosus: 24 h at 37 °C, dilution series 50 to 0.1 µM; for times higher MIC than that of ampicillin, S. carnosus: ratio to ampicillin
Experimental: as §1, §2

[3] = system: human red blood cells (HRBCs); assay type: cell-based; conditions: for EC50: hemolysis assay, HRBCs, read-out: Toxicity (EC50 in µM) HRBCs
Experimental: as §1
Hemolysis assay. Hemolytic toxicity of the peptides was evaluated from their ability to lyse the fresh human red blood cells (HRBCs) collected from the University Hospital (Brno, Czech Republic). To obtain the erythrocyte pellets, the blood samples were centrifuged twice at 700×g and subsequently, once at 1000×g, each for 8 min. at 4 °C, which was followed by thorough washing with PBS. Resuspension of the pellets was done in PBS to obtain 0.5% (vol/vol) RBC suspension. In a well plate with 96 V-shaped bottom wells, the peptides were added in a dilution series from 0.1 to 50 µM concentration. Subsequently, HRBC suspension was added in each well. Negative control wells contained only PBS and HRBC suspension without any peptide (i.e., 0% lysis), and positive control wells included 5 µM melittin in the HRBC suspension. After incubation for 1 h at 37 °C, the well plates were centrifuged at 1000×g for 10 min. at 4 °C. Subsequently, the supernatant was collected in a flat-bottomed well plate and the optical density of the released hemoglobin was measured for each well at 415 nm wavelength. The calculated absorbances from the wells were then normalized against the averaged absorbances of the positive and the negative control wells. EC50 value was calculated from the normalized absorbances indicating 50% hemolysis of HRBCs. Experiments were performed in triplicates with three independent blood samples.

[4] = system: human dermal fibroblast (HDF) cell lines; experiment: Neutral red uptake assay (cytotoxicity); assay type: cell-based
Experimental: Neutral red uptake assay. To evaluate the cytotoxicity of the peptides against human dermal fibroblast (HDF) cell lines, the inventors purchased the neutral red uptake assay from Essence Line (Praha, Czech Republic). The initial cell culture was sub-cultured in supplemented Dulbecco's Modified Eagle Medium (DMEM) and diluted to a cell density of 1 × 10^5 cells/mL. The diluted culture was then seeded into the wells (1 × 10^4

[5] = system: Acinetobacter baumanni GSAB 164; assay type: cell-based; conditions: ESKAPE panel; strain not given, ampicillin > 16 fits the 16-to-0.03 µM series of Evotec
Experimental: as §2
(§3) The antimicrobial susceptibility test of the most promising peptide against the recalcitrant ESKAPE pathogens was purchased from Evotec (Macclesfield, UK) for the following strains: Enterococcus faecium ATCC 700221, Staphylococcus aureus NRS 1, Klebsiella pneumoniae ATCC 700603, Acinetobacter baumanni GSAB 164, Pseudomonas aeruginosa ATCC 13437, Escherichia coli ATCC 25922 and Enterobacter aerogenes B207A, and was purchased from Essence Line (Praha, Czech Republic) against the following strains: Enterococcus faecium ATCC 29212, Enterococcus hirae ATCC 10541, Staphylococcus aureus ATCC 6538, ATCC 29213, Methicillin-resistant Staphylococcus aureus (MRSA) CNCTC 7452, Klebsiella pneumoniae ATCC 10031, Acinetobacter baumanni ATCC 19606, Pseudomonas aeruginosa ATCC 15442 and Escherichia coli ATCC 10536 and ATCC 35218. […]

[6] = system: Enterococcus faecium ATCC 700221; assay type: cell-based; conditions: ESKAPE panel; strain not given, ampicillin > 16 fits the 16-to-0.03 µM series of Evotec
Experimental: as §2, §3

[7] = system: Escherichia coli ATCC 25922; assay type: cell-based; conditions: strain not given, assigned to the Evotec series
Experimental: as §2, §3

[8] = system: Klebsiella pneumoniae ATCC 700603; assay type: cell-based; conditions: ESKAPE panel; strain not given, ampicillin > 16 fits the 16-to-0.03 µM series of Evotec
Experimental: as §2, §3

Substance	Extent of leakage (in percentage) at increasing peptide-to-lipid ratio (mol/mol) 1:20 (Calcein leakage assay)	Extent of leakage (in percentage) at increasing peptide-to-lipid ratio (mol/mol) 1:50 (Calcein leakage assay)	Extent of leakage (in percentage) at increasing peptide-to-lipid ratio (mol/mol) 1:100 (Calcein leakage assay)	Antibacterial activity (MIC in µM) E. coli TOP10 [1]	pEC50 [3]	EC50 [3]	Antibacterial activity (MIC in µM) S. carnosus ([2]; CCM 4838)	pEC50 [4]	other results
KKKKLKKFFKKLIQLINQLFDDLDDFKKKK-NH2 [KDFD24+9-NH2]	81.5 ± 6.8 percentage	42.6 ± 11.5 percentage	13.0 ± 5.2 percentage	12.5 µM	< 4.30	–	–	–	Extent of leakage (in percentage) at increasing peptide-to-lipid ratio (mol/mol) 1:10 (Calcein leakage assay): 98.7 ± 3.2 percentage; Antibacterial activity (MIC in µM) S. carnosus ([2]; broth microdilution assay, S. carnosus): 12.5 µM
KKKKLKKILKKLFQFIDQLDNDLQDIKKKK (not fully specified (C-terminus)) [KDFC16+9-NH2, group C peptide, net charge +9 e; 89]	98.3 ± 5.2 percentage	97.4 ± 9.3 percentage	78.2 ± 4.5 percentage	0.8 µM	–	> 50 µM	–	–	Extent of leakage (in percentage) at increasing peptide-to-lipid ratio (mol/mol) 1:10 (Calcein leakage assay): 99.28 ± 1.2 percentage; MIC against E. coli ([1]; 24 h at 37 °C, dilution series 50 to 0.1 µM): 0.8 µM; times lower MIC than the MIC of ampicillin, E. coli ([1]; ratio to ampicillin): 15; MIC against S. carnosus [2]: 0.4 µM; times higher MIC than that of ampicillin, S. carnosus [2]: 4; EC50 ([4]; HDFs, column stands under the head 'Hemolysis assay', read-out: Toxicity (EC50 in µM) HDFs): 10 µM
KKKKLKKILKKLFQFIDQLINDLQNIKKKK-NH2 [KDFA5+11-NH2]	101.6 ± 1.4 percentage	78.0 ± 4.3 percentage	38.6 ± 3.5 percentage	1.6 µM	–	> 50 µM	1.6 µM	–	–
KKKKLKKILKKLFQFINQLDNQLQDIKKKK-NH2 [KDFA2i+11-NH2]	–	–	–	0.2 µM	–	> 50 µM	0.2 µM	–	MIC against A. baumannii [5]: 1.4 µM; MIC against E. faecium [6]: 1.9 µM; MIC against E. coli (ESKAPE panel) [7]: 1.4 µM; MIC against K. pneumoniae [8]: 3.8 µM
KKKKLKKILKKLFQFINQLDNQLQDIKQNK-NH2 [KDFA2i+9-NH2]	–	–	–	0.8 µM	–	> 50 µM	0.8 µM	4.01	–
KKKKLKKILKKLFQFINQLIDDLDDIKKKK-NH2 [KDFC21+9-NH2]	99.4 ± 1.6 percentage	78.2 ± 1.2 percentage	–	3.1 µM	< 4.30	–	3.1 µM	–	Extent of leakage (in percentage) at increasing peptide-to-lipid ratio (mol/mol) 1:10 (Calcein leakage assay): 102.2 ± 1.1 percentage
KKKKLRRILRRLFQFINQLDNQLQDIKQNK-NH2 [RDFA2i+9-NH2-Kter]	–	100.7 ± 1.0 percentage	76.0 ± 3.3 percentage	0.2 µM	–	49 µM	0.4 µM	–	antimicrobial activity against S. carnosus (in words) [2]: more effective against S. carnosus
KKKKVKKVVKKVFSFVDSVDSDVSDVKKKK-NH2 [KDFC16+9SV-NH2]	–	–	–	25 µM	< 4.30	–	–	< 3.82	calcein / vesicle leakage, pore-forming ability (in words) (Calcein leakage assay): did not cause calcein leakage; MIC against S. carnosus [2]: 0.4 µM; times higher MIC than that of ampicillin, S. carnosus [2]: 4
KQKKLKKFFNQLIQLINQLFNQLDDFNQNK [KDFB12]	101.5 ± 0.6 percentage	98.2 ± 0.7 percentage	79.4 ± 3.7 percentage	6.3 µM	< 4.30	–	6.3 µM	4.70	–
NQKKLQNILNKLFKFIDDLINQLQNIKKQN [KDFA9]	102.0 ± 1.4 percentage	92.0 ± 0.3 percentage	62.6 ± 5.2 percentage	> 50 µM	< 4.30	–	> 50 µM	–	calcein / vesicle leakage, pore-forming ability (in words) (Calcein leakage assay): retained
RRRRLKKILKKLFQFINQLDNQLQDIRQNR-NH2 [KDFA2i+9-NH2-Rter]	103.3 ± 1.2 percentage	98.8 ± 1.2 percentage	65.5 ± 4.2 percentage	0.4 µM	–	6.9 µM	0.8 µM	–	–
RRRRLRRILRRLFQFINQLDNQLQDIRQNR-NH2 [RDFA2i+9-NH2]	–	101.1 ± 0.8 percentage	65.8 ± 4.1 percentage	1.6 µM	6.05	–	0.8 µM	4.80	pEC50 ([3]; 1 h): 6.05
